Reference: patent US5574142A, “Peptide linkers for improved oligonucleotide delivery” (MicroProbe Corporation, priority 1992, dated 1996)
{C6NH2} = aminohexyl phosphate linker

Key:
[1] = test system: unmodified 20-mer ODN complement with the base sequence 5'-GTGACGAACATGGAGAACAT; assay: Thermal denaturation studies (Tm of duplex with complementary ODN); assay type: binding; details: equimolar ODN and 20-mer complement, 2 μM solutions in pH 7.2 PBS, A260, 15-85° C. at 0.5° C./min
Protocol: The ODN-peptide conjugates prepared from ODN1 were further characterized by thermal denaturation studies as described in EXAMPLE III. The dissociation of duplexes formed from equimolar concentrations of the ODN1-peptide conjugates and an unmodified 20-mer ODN target were examined. The changes in absorbance at 260 nm were measured as a function of temperature and the melting temperatures (Tm) were determined. […] Therefore, amino acid residue(s) from proteolysis of the linker are, generally speaking, expected to have little effect on the biological activity of the released ODN.
Thermal Denaturation Studies (ODN1-Peptides). Thermal dissociation curves were obtained by following changes in A260 of aqueous solutions containing equimolar amounts of the particular ODN1-peptide described above and an unmodified 20-mer ODN complement with the base sequence 5'-[…] Sequence ID No.: 14. The 5'-hexylamine modified 16-mer (ODN1) was used as a control in each run. ODNs were prepared as 2 μM solutions in pH 7.2 PBS. A Gilford System 2600 UV-VIS spectrophotometer equipped with a Gilford 2527 Thermoprogrammer was used. […] Absorbance vs. time and the first derivative data were recorded automatically. […] The Tm was determined using the derivative maxima: ODN1, Tm =62.8° C.; ODN1-PEP1, Tm =61.8° C.; ODN1-PEP2, Tm =59.0° C.; […]° C.

[2] = test system: trypsin; assay: Protease degradation studies (trypsin digestion, polyacrylamide gel electrophoresis); assay type: biochemical; details: 2 μg ODN-peptide, Tris pH 9.0, EDTA, digesting 60 min, 20% denaturing polyacrylamide gel
Excerpt: The model ODN-peptide conjugates were further characterized by their susceptibility to proteolysis with trypsin. (For detail see EXAMPLE IV). As is known in the art, trypsin catalyzes the hydrolysis at the carboxyl side of lysine or arginine residues in the peptides. It was found in accordance with the present invention that trypsin had no effect on the ODN as shown by polyacrylamide gel electrophoresis in FIG. 6.
Protease Degradation Studies (ODN1-Peptides). The three ODN1-peptide conjugates (described in Table I) were characterized by treatment with trypsin. Solutions of 2 μg of the ODN-peptide in 7 μL of water were combined with 1 μL of 10x trypsin disruption solution, 1 μL of 100 mM Tris buffer (pH 9.0), and 1 μL of 100 mM EDTA. After digesting 60 min, the samples were loaded on 20% denaturing polyacrylamide gel. Electrophoresis indicated complete proteolysis of starting ODN1-peptide (see FIG. 6, lanes 1-6). Trypsin had no effect on an unmodified ODN1 control (lanes 8 and 9).

## H2 N--(CH2)6 --O--PO2^- -5'O--CTCCATCTTCGTCACA (5' {C6NH2}, sugars by position and backbone not given here) [ODN1, 5'-hexylamine modified 16-mer ODN complementary to initiation codon region of Hepatitis B surface antigen mRNA]
[1]
  Tm (melting temperature, derivative maxima): 62.8 °C
[2]
  proteolysis by trypsin (electrophoresis): no effect
